Measured values reported in patent US20170000784A1, “Autophagy Inhibitors” (priority 2013, published 2017).

Legend:
[1] = test system: endogenous LC3 in U2OS cells; assay: Western blot of endogenous LC3 (LC3-II accumulation) in U2OS; format: cell-based; settings: dose response, three hours, FIG. 11A
Protocol: For Western blotting, U2OS cells were seeded in 10 cm plates in 5A McCoy's with 10% FBS at 1×10^6 cells per plate. […] After treatment, cells were lysed [10 mM KPO4, 1 mM EDTA, 10 mM MgCl2, 5 mM EGTA, 50 mM bis-glycerophosphate, 0.5% NP40, 0.1% Brij35, 0.1% sodium deoxycholate, 1 mM NaVO4, 5 mM NaF, 2 mM DTT, and complete protease inhibitors (Sigma, P8340-5 mL)] and 50 μg of protein was resolved by SDS-PAGE. […] Proteins were detected with enhanced chemiluminescence or using the Odyssey machine and quantified (FIGS. 12, 15, 16, 7 and 11).

[2] = test system: phospho-ERK1/2 and LC3-II in A375 cells; assay: Western blot of A375 cells treated with PLX-4032 with and without autophagy inhibitors; format: cell-based, human; settings: in combination with PLX-4032, FIG. 16C
Protocol: For Western blotting, U2OS cells were seeded in 10 cm plates in 5A McCoy's with 10% FBS at 1×10^6 cells per plate. All melanoma lines were seeded in 10 cm plates in RPMI 1640 with 10% FBS at 1×10^6 cells per plate. After 24 hours, cells were treated with CQ, QN, Example 27, or Example 7 in a dose response of 0.3 μM, 1 μM, 3 μM, 10 μM, and 30 μM for three hours. A375 were treated with PLX-4032 (Selleck Chemicals, S1267) at 10 nM, 100 nM, and 1 μM for three hours with and without CQ, QN, Example 7, and Example 27 at 3 μM and 30 μM. After treatment, cells were lysed [10 mM KPO4, 1 mM EDTA, 10 mM MgCl2, 5 mM EGTA, 50 mM bis-glycerophosphate, 0.5% NP40, 0.1% Brij35, 0.1% sodium deoxycholate, 1 mM NaVO4, 5 mM NaF, 2 mM DTT, and complete protease inhibitors (Sigma, P8340-5 mL)] and 50 μg of protein was resolved by SDS-PAGE. Proteins were transferred to PVDF membranes and probed with primary antibodies [LC3 (Sigma, L7543-200UL), anti-α-tubulin (Sigma, T6199), cathepsin B (Santa Cruz, sc-13985)] for 16 hours at 4° C. followed by a secondary antibody [HRP-linked rabbit or mouse IgG (GE Healthcare, NA934 or NA931) or Odyssey IRDye 680CW Goat anti-rabbit IgG (LI-COR, 926-32221) or IRDye 800CW Goat anti-mouse IgG (LI-COR, 926-32210)] for 1 hour at room temperature. Proteins were detected with enhanced chemiluminescence or using the Odyssey machine and quantified (FIGS. 12, 15, 16, 7 and 11).
Since the melanoma cell lines are capable of undergoing autophagy and sensitive to autophagy inhibition, the inventors questioned whether autophagy inhibitors could improve the efficacy of, or sensitize melanoma cells against cytotoxic and chemotherapeutic drugs for advanced metastatic melanoma. In one example, PLX-4032 drug “vemurafenib” (marketed as ZELBORAF®) is a B-Raf enzyme inhibitor developed by Plexxikon and Genentech for the treatment of late-stage melanoma. The name “vemurafenib” comes from V600E mutated BRAF inhibition. PLX-4032, selectively targets the V600E mutant BRAF and it is unknown how this drug may affect autophagic flux. To determine the effects of the drug on autophagic flux, the present inventors performed experiments to determine whether PLX-4032 induces autophagy, as has been observed with other targeted agents. In some embodiments, the accumulation of LC3-II in response to lysosome inhibition was measured by quantitative Western blotting, as described above. A375 cells were treated with PLX-4032 (10 nM, 100 nM, and 1 μM) for three hours in the presence or absence of CQ.

[3] = test system: Plasmodium berghei; assay: In vivo compound efficacy in Plasmodium berghei; settings: mice; oral 50 mg/kg at 4, 24, 48 and 72 hours post-infection; day 4
Protocol: Mice were infected intravenously with parasitized red blood cells on day 0 (2×10^7 parasitized erythrocytes per mL). Experimental mice were treated at 4, 24, 48, and 72 hours post-infection with an oral dose of Example 7 at 50 mg/kg and were compared to an infected control group for the % reduction in parasitaemia on day 4 (96 hours post-infection) and for mean survival (monitored up to 30 days post-infection). A compound was considered curative if the animal survived to day 30 after infection with no detectable parasites.
The potent anti-malarial activity of Example 7, combined with its therapeutic window in vitro, led us to explore its activity in vivo using a murine model of malaria. Mice are infected with the murine specific Plasmodium, P. berghei, after which an antimalarial treatment regimen is given. Example 7 was given at 50 mg/kg at times 4, 24, 48, and 72 hours post-infection of mice already infected with P. berghei. The reduction in parasitemia, measured as the total blood load of the P. berghei parasite, was compared to an infected control group for the percent reduction of parasite on day 4 (96 hours post-infection). Example 7 was unexpectedly shown to be effective in reducing parasitemia by 99% compared to the infected control group after 4 days, making it an effective antimalarial in these preclinical models.

SMILES | accumulation of LC3-II [1] | LC3II accumulation [2] | reduction in parasitemia compared to the infected control group [3] [%]
COc1ccc2nc3cc(Cl)ccc3c(NCCCCN3CCN(C)CC3)c2c1 [Example 7, 6-Chloro-2-methoxy-N-(4-(4-methylpiperazin-1-yl)butyl)acridin-9-amine] | increased accumulation of LC3-II | greater increases in LC3II accumulation | 99
CN1CCN(CCNc2c3c(nc4cc(Cl)ccc24)CCCC3)CC1 [Example 27, 6-Chloro-N-(2-(4-methylpiperazin-1-yl)ethyl)-1,2,3,4-tetrahydroacridin-9-amine] | increased accumulation of LC3-II | greater increases in LC3II accumulation | 
